Data reported in publication PMC11876601 (Molecular Systems Biology, 2025).
Read-outs that look alike come from different tables or passages of the source. Values belong to the compound of their own block, whether it stands above or below them.

Experiments:
HuP-T4 [1] = experiment: cells; design: Viability of PDAC cell lines, ATPlite luminescence, 11-dose single-agent curve fit; conditions: Homo sapiens, HuP-T4, 72 h, read-out: EC50 [nM]
Summary of the method: (§1)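 screening used cells plated at 1000 to 5000 per well one day before treatment. Final DMSO was 0.2%. Each plate held untreated negative-control wells and 5 µM staurosporine positive-control wells.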

PSN-1 [2] = experiment: cells; design: Viability of PDAC cell lines, ATPlite luminescence, 11-dose single-agent curve fit; conditions: Homo sapiens, PSN1, 72 h, read-out: EC50 [nM]
Summary of the method: as §1

PANC-1 = experiment: cells; design: Viability of PDAC cell lines, ATPlite luminescence, 11-dose single-agent curve fit; conditions: Homo sapiens, PANC-1, 72 h, read-out: EC50 [nM]
Summary of the method: as §1

MiaPaCa-2 [3] = experiment: cells; design: Viability of PDAC cell lines, ATPlite luminescence, 11-dose single-agent curve fit; conditions: Homo sapiens, MIA PaCa-2, 72 h, read-out: EC50 [nM]
Summary of the method: as §1

AsPC-1 [4] = experiment: cells; design: Viability of PDAC cell lines, ATPlite luminescence, 11-dose single-agent curve fit; conditions: Homo sapiens, ASPC1, 72 h, read-out: EC50 [nM]
Summary of the method: as §1

Capan-1 [5] = experiment: cells; design: Viability of PDAC cell lines, ATPlite luminescence, 11-dose single-agent curve fit; conditions: Homo sapiens, CAPAN-1, 72 h, read-out: EC50 [nM]
Summary of the method: as §1

PaTu-8988-T [6] = experiment: cells; design: Viability of PDAC cell lines, ATPlite luminescence, 11-dose single-agent curve fit; conditions: Homo sapiens, PaTu 8988t, 72 h, read-out: EC50 [nM]
Summary of the method: as §1

FAMPAC = experiment: cells; design: ATPlite luminescence viability of PDAC cell lines, 11-dose single-agent curves, 4-parameter fit; conditions: 72 h, read-out: EC50 [nM]
Summary of the method: (§2)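 Drug-combination screening used cells plated at 1000 to 5000 per well one day before treatment. Final DMSO was 0.2%. Each plate held untreated negative-control wells and 5 µM staurosporine positive-control wells.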

HPDE = experiment: cells; design: ATPlite luminescence viability of PDAC cell lines, 11-dose single-agent curves, 4-parameter fit; conditions: HPDE, 72 h, read-out: EC50 [nM]
Summary of the method: as §2

Colo-357 = experiment: cells; design: ATPlite luminescence viability of PDAC cell lines, 11-dose single-agent curves, 4-parameter fit; conditions: Homo sapiens, COLO357, 72 h, read-out: EC50 [nM]
Summary of the method: as §2

Dan-G = experiment: cells; design: ATPlite luminescence viability of PDAC cell lines, 11-dose single-agent curves, 4-parameter fit; conditions: 72 h, read-out: EC50 [nM]
Summary of the method: as §2

Suit2-07 = experiment: cells; design: ATPlite luminescence viability of PDAC cell lines, 11-dose single-agent curves, 4-parameter fit; conditions: 72 h, read-out: EC50 [nM]
Summary of the method: as §2

BxPC-3 = experiment: cells; design: ATPlite luminescence viability of PDAC cell lines, 11-dose single-agent curves, 4-parameter fit; conditions: Homo sapiens, BXPC-3, 72 h, read-out: EC50 [nM]
Summary of the method: as §2

advanced PDAC patients = system: advanced PDAC patients; design: method as in Moore et al, 2007; conditions: Erlotinib + GEM, ref Moore et al, 2007; cited from earlier work
MAP3K4 = conditions: Kinobeads; ref Klaeger et al, 2017a; Reinecke et al, 2023a; read-out: KDapp; cited from earlier work
30 PDAC cell lines = conditions: ref Jaaks et al, 2022; cited from earlier work
13 PDAC cell lines = experiment: Phenotypic drug combination viability screen (ATPlite, 72 h), cell line panel; assay type: cell-based, human; conditions: of 13 cell lines; Bliss model
Description: Cell viability was assessed by measuring ATP levels to indicate metabolic activity.
Afterward, small amounts were transferred to 384-well intermediate plates (Greiner Bio-One GmbH, Germany). […] For drug combination screening, 1000 to 5000 cells were seeded into 384-well plates (CulturPlate™, Perkin Elmer, MA, USA) using a Multidrop™ Combi Reagent Dispenser (Thermo Scientific, MA, USA) in 50 µl medium per well 24 h prior to drug treatment (seeding densities see Appendix Table S1). […] The final DMSO concentration in each well was 0.2%. […] Eight wells per plate without library drug served as negative controls, and sixteen wells per plate containing 5 µM Staurosporine served as positive controls. Control plates not containing any drug were used to correct for incubation effects, and data quality was assessed by calculation of Z-prime of positive and negative controls according to1 Z-prime=1−3SDpos+3SDneg/[…] where SD is the standard deviation. […] Dose–response curves from the experimental and hypothetical data were compared, and shifts in AUC were used to describe combination effects (AUC∆ = AUChypothetical − AUCexperimental). […] Only combinations with R^2 > 0.8 in both conditions were considered in the synergy analysis.

HuP-T4 [7] = experiment: cells; design: ATPlite luminescence viability of PDAC cell lines, 11-dose single-agent curves, 4-parameter fit; conditions: Homo sapiens, HuP-T4, 72 h, read-out: EC50 [nM]
Summary of the method: as §2

PSN-1 [8] = experiment: cells; design: ATPlite luminescence viability of PDAC cell lines, 11-dose single-agent curves, 4-parameter fit; conditions: Homo sapiens, PSN1, 72 h, read-out: EC50 [nM]
Summary of the method: as §2

MiaPaCa-2 [9] = experiment: cells; design: ATPlite luminescence viability of PDAC cell lines, 11-dose single-agent curves, 4-parameter fit; conditions: Homo sapiens, MIA PaCa-2, 72 h, read-out: EC50 [nM]
Summary of the method: as §2

AsPC-1 [10] = experiment: cells; design: ATPlite luminescence viability of PDAC cell lines, 11-dose single-agent curves, 4-parameter fit; conditions: Homo sapiens, ASPC1, 72 h, read-out: EC50 [nM]
Summary of the method: as §2

Capan-1 [11] = experiment: cells; design: ATPlite luminescence viability of PDAC cell lines, 11-dose single-agent curves, 4-parameter fit; conditions: Homo sapiens, CAPAN-1, 72 h, read-out: EC50 [nM]
Summary of the method: as §2

PaTu-8988-T [12] = experiment: cells; design: ATPlite luminescence viability of PDAC cell lines, 11-dose single-agent curves, 4-parameter fit; conditions: Homo sapiens, PaTu 8988t, 72 h, read-out: EC50 [nM]
Summary of the method: as §2

EC50 (PANC-1): 36.8 nM
EC50 (MiaPaCa-2 [3]): 4050 nM
EC50 (AsPC-1 [4]): > 10000 nM
EC50 (Colo-357): 1040 nM
EC50 (BxPC-3): 2060 nM
SMILES: C#Cc1cccc(Nc2ncnc3cc(OCCOC)c(OCCOC)cc23)c1 [Erlotinib]
EC50 (HuP-T4 [1]): 8400 nM
EC50 (PSN-1 [2]): 5920 nM
EC50 (Capan-1 [5]): 2940 nM
EC50 (PaTu-8988-T [6]): 5260 nM
EC50 (FAMPAC): 3940 nM
EC50 (HPDE): 552 nM
EC50 (Dan-G): 630 nM
EC50 (Suit2-07): > 10000 nM
improvement of overall survival over GEM alone (advanced PDAC patients): two weeks

EC50 (Colo-357): 135 nM
EC50 (MiaPaCa-2 [9]): 244 nM
EC50 (AsPC-1 [10]): 171 nM
SMILES: C=CCn1c(=O)c2cnc(Nc3ccc(N4CCN(C)CC4)cc3)nc2n1-c1cccc(C(C)(C)O)n1 [Adavosertib]
Kd (MAP3K4): 0.052 µM
synergy with GEM (30 PDAC cell lines): to a lesser extent
number of cell lines with synergy with GEM (13 PDAC cell lines): 7 cell lines
EC50 (FAMPAC): 268 nM
EC50 (HuP-T4 [7]): 5570 nM
EC50 (HPDE): 946 nM
EC50 (PSN-1 [8]): 464 nM
EC50 (Dan-G): 147 nM
EC50 (Suit2-07): 206 nM
EC50 (Capan-1 [11]): 327 nM
EC50 (PaTu-8988-T [12]): 154 nM
